From patent publication US8895585B2, “Nicotinamide derivative or salt thereof” (FUJIFILM Corporation, priority 2010, dated 2014)

Columns and labels:
[1] = biological target: T1, glutathione S-transferase (GST)-fused full-length human Syk protein (Homo sapiens, UniProt P43405); test: Syk enzyme assay; assay type: biochemical; conditions: Syk enzyme assay, Test Example 1; read-out: IC50 of Syk-inhibitory activity
T1 construct: (GST)-fused full-length human Syk protein; GST (glutathione S-transferase); purchased Carna Biosciences
How it was run: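 Baculovirus-expressed enzyme (1.2 ng) was preincubated with compound in HEPES pH 7.0/MgCl2/DTT buffer, 2 min shaking then 13 min at room temperature. Biotin-EDPDYEWPSA-NH2 (0.4 μM final) and ATP (27 μM final) were added for 40 min at room temperature. EDTA stop, streptavidin-XL/PT66-K TR-FRET at 615/665 nm gave IC50.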

[2] = test system: THP-1 cells; test: TNFα generation assay; assay type: cell-based, human; conditions: Homo sapiens, THP-1, THP-1 cells; Table 22; read-out: IC50 in TNFα generation assay
How it was run: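 Secreted TNFα in supernatant quantified by ELISA or AlphaLISA after 7 h culture on human IgG-coated wells (10 μg/ml coating). Cells were IFN-γ-differentiated THP-1 (10 ng/ml, 2 days), exposed to compound for 30 min at room temperature before plating.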

Row | IC50 [1] [nM] | IC50 [2] [nM] | SMILES
1 | < 10 | 65 to 130 | CCCc1nn(C)c2ccc(Nc3nc(N[C@H](CC4CC4)[C@H](C)N)c(F)cc3C(N)=O)cc12 [Example 006-464, 6-(((2R,3S)-3-amino-1-cyclopropylbutan-2-yl)amino)-5-fluoro-2-((1-methyl-3-propyl-1H-indazol-5-yl)amino)nicotinamide]
2 | < 10 | 130 to 200 | CCn1nc(C(C)C)c2cc(Nc3nc(N[C@H](CC4CC4)[C@H](C)N)c(F)cc3C(N)=O)ccc21 [Example 006-465, 6-(((2R,3S)-3-amino-1-cyclopropylbutan-2-yl)amino)-2-((1-ethyl-3-isopropyl-1H-indazol-5-yl)amino)-5-fluoronicotinamide]
3 | 10 to 50 | 65 to 130 | NC(=O)c1cc(F)c(N[C@@H]2CCCC[C@@H]2N)nc1Nc1cnc(N2CCOCC2)c(Cl)c1 [Example 006-466, 6-(((1R,2S)-2-aminocyclohexyl)amino)-2-((5-chloro-6-morpholinopyridin-3-yl)amino)-5-fluoronicotinamide]
4 | < 10 | < 65 | CCn1ncc2cc(Nc3nc(N[C@H](COC)[C@H](C)N)c(F)cc3C(N)=O)ccc21 [Example 006-469, 6-(((2S,3S)-3-amino-1-methoxybutan-2-yl)amino)-2-((1-ethyl-1H-indazol-5-yl)amino)-5-fluoronicotinamide]
5 | 10 to 50 | 65 to 130 | COC[C@@H](Nc1nc(Nc2ccnc(OC)c2)c(C(N)=O)cc1F)[C@H](C)N [Example 006-470, 6-(((2S,3S)-3-amino-1-methoxybutan-2-yl)amino)-5-fluoro-2-((2-methoxypyridin-4-yl)amino)nicotinamide]
6 | < 10 | < 65 | CCn1ncc2cc(Nc3nc(N[C@H](C4CC4)[C@H](C)N)c(F)cc3C(N)=O)ccc21 [Example 006-471, 6-(((1R,2S)-2-amino-1-cyclopropylpropyl)amino)-2-((1-ethyl-1H-indazol-5-yl)amino)-5-fluoronicotinamide]
7 | < 10 | 65 to 130 | NC(=O)c1cc(F)c(N[C@@H]2CCCC[C@@H]2N)nc1Nc1ccc2c(cnn2C2CC2)c1 [Example 006-472, 6-(((1R,2S)-2-aminocyclohexyl)amino)-2-((1-cyclopropyl-1H-indazol-5-yl)amino)-5-fluoronicotinamide]
8 | < 10 | < 65 | NC(=O)c1cc(F)c(N[C@@H]2CCCC[C@@H]2N)nc1Nc1ccc2cnn(C3CC3)c2c1 [Example 006-473, 6-(((1R,2S)-2-aminocyclohexyl)amino)-2-((1-cyclopropyl-1H-indazol-6-yl)amino)-5-fluoronicotinamide]
9 | < 10 | 65 to 130 | NC(=O)c1cc(F)c(N[C@@H]2CCCC[C@@H]2N)nc1Nc1cccc2c1cnn2C1CC1 [Example 006-474, 6-(((1R,2S)-2-aminocyclohexyl)amino)-2-((1-cyclopropyl-1H-indazol-4-yl)amino)-5-fluoronicotinamide]
10 | < 10 | 130 to 200 | NC(=O)c1cc(F)c(N[C@@H]2CCCC[C@@H]2N)nc1Nc1ccc2c(c1)c(F)nn2C1CC1 [Example 006-475, 6-(((1R,2S)-2-aminocyclohexyl)amino)-2-((1-cyclopropyl-3-fluoro-1H-indazol-5-yl)amino)-5-fluoronicotinamide]
11 | < 10 | 130 to 200 | Cc1nn(C2CC2)c2ccc(Nc3nc(N[C@@H]4CCCC[C@@H]4N)c(F)cc3C(N)=O)cc12 [Example 006-477, 6-(((1R,2S)-2-aminocyclohexyl)amino)-2-((1-cyclopropyl-3-methyl-1H-indazol-5-yl)amino)-5-fluoronicotinamide]
12 | < 10 | 65 to 130 | CCc1nn(C2CC2)c2ccc(Nc3nc(N[C@@H]4CCCC[C@@H]4N)c(F)cc3C(N)=O)cc12 [Example 006-478, 6-(((1R,2S)-2-aminocyclohexyl)amino)-2-((1-cyclopropyl-3-ethyl-1H-indazol-5-yl)amino)-5-fluoronicotinamide]
13 | < 10 | 130 to 200 | C[C@H](N)[C@@H](CC1CC1)Nc1nc(Nc2ccc3cnn(C4CC4)c3c2)c(C(N)=O)cc1F [Example 006-480, 6-(((2R,3S)-3-amino-1-cyclopropylbutan-2-yl)amino)-2-((1-cyclopropyl-1H-indazol-6-yl)amino)-5-fluoronicotinamide]
14 | < 10 | < 65 | Cc1ncc(Nc2nc(N[C@H](C3CC3)[C@H](C)N)c(F)cc2C(N)=O)cc1-n1nccn1 [Example 006-483, 6-(((1R,2S)-2-amino-1-cyclopropylpropyl)amino)-5-fluoro-2-((6-methyl-5-(2H-1,2,3-triazol-2-yl)pyridin-3-yl)amino)nicotinamide]
15 | 10 to 50 | 65 to 130 | COc1ncc(Nc2nc(N[C@@H]3CCCC[C@@H]3N)c(F)cc2C(N)=O)cc1F [Example 006-484, 6-(((1R,2S)-2-aminocyclohexyl)amino)-5-fluoro-2-((5-fluoro-6-methoxypyridin-3-yl)amino)nicotinamide]
16 | < 10 | 65 to 130 | Cc1nn(C)c2cc(Nc3nc(N[C@H](CC4CC4)[C@H](C)N)c(F)cc3C(N)=O)ccc12 [Example 006-485, 6-(((2R,3S)-3-amino-1-cyclopropylbutan-2-yl)amino)-2-((1,3-dimethyl-1H-indazol-6-yl)amino)-5-fluoronicotinamide]
17 | < 10 | 130 to 200 | CCn1nc(C)c2ccc(Nc3nc(N[C@H](CC4CC4)[C@H](C)N)c(F)cc3C(N)=O)cc21 [Example 006-486, 6-(((2R,3S)-3-amino-1-cyclopropylbutan-2-yl)amino)-2-((1-ethyl-3-methyl-1H-indazol-6-yl)amino)-5-fluoronicotinamide]
18 | < 10 | 130 to 200 | COCCn1nc(C)c2ccc(Nc3nc(N[C@H](CC4CC4)[C@H](C)N)c(F)cc3C(N)=O)cc21 [Example 006-487, 6-(((2R,3S)-3-amino-1-cyclopropylbutan-2-yl)amino)-5-fluoro-2-((1-(2-methoxyethyl)-3-methyl-1H-indazol-6-yl)amino)nicotinamide]
19 | < 10 | 65 to 130 | Cc1nn(CCF)c2cc(Nc3nc(N[C@H](CC4CC4)[C@H](C)N)c(F)cc3C(N)=O)ccc12 [Example 006-488, 6-(((2R,3S)-3-amino-1-cyclopropylbutan-2-yl)amino)-5-fluoro-2-((1-(2-fluoroethyl)-3-methyl-1H-indazol-6-yl)amino)nicotinamide]
20 | < 10 | 130 to 200 | Cc1nn(CC(F)F)c2cc(Nc3nc(N[C@H](CC4CC4)[C@H](C)N)c(F)cc3C(N)=O)ccc12 [Example 006-489, 6-(((2R,3S)-3-amino-1-cyclopropylbutan-2-yl)amino)-2-((1-(2,2-difluoroethyl)-3-methyl-1H-indazol-6-yl)amino)-5-fluoronicotinamide]
21 | 10 to 50 | 130 to 200 | COc1ncc(Nc2nc(N[C@@H]3CCCC[C@@H]3N)c(F)cc2C(N)=O)cc1-n1ccnn1 [Example 006-493, 6-(((1R,2S)-2-aminocyclohexyl)amino)-5-fluoro-2-((6-methoxy-5-(1H-1,2,3-triazol-1-yl)pyridin-3-yl)amino)nicotinamide]
22 | 10 to 50 | 130 to 200 | CCOc1ncc(Nc2nc(N[C@@H]3CCCC[C@@H]3N)c(F)cc2C(N)=O)cc1-n1cccn1 [Example 006-494, 6-(((1R,2S)-2-aminocyclohexyl)amino)-2-((6-ethoxy-5-(1H-pyrazol-1-yl)pyridin-3-yl)amino)-5-fluoronicotinamide]
